Experiments:
[1] = Light-resistance test: residual percentage of dye in thin layer on glass after 25 min exposure to 500 W xenon lamp; format: physicochemical; conditions: 7 cm, from transmittance at absorption maximum; for Residual percentage of monomethine cyanine dye, With no light-resistant improver: control thin layer without improver; for Residual percentage of monomethine cyanine dye, With light-resistant improver: thin layer with formazan nickel complex of Chemical Formula 49 (15 mg dye + 2 mg improver in 3 ml TFP)
Description: Fifteen milligrams of either of the monomethine cyanine dyes in Table 2 was added to three milliliters of TFP, and as a light-resistant improver two milligrams of the formazan nickel complex represented by Chemical Formula 49 disclosed in Japanese Patent Application No. 163,036/99, titled “Formazan metal complexes” applied for by the same applicant as the present invention, and the contents were dissolved in the solvent with a 5-minute ultrasonic energization at ambient temperature. Thereafter, in a usual manner, a prescribed volume of the resulting solution was dropped on either surface of a polished glass substrate, 5 cm×5 cm, while the glass substrate was rotated at a rotation rate of 1,000 rpm for one minute to uniformly coat the solution thereupon, and sequentially blown with hot air and cold air to dry the coated solution. [drawing 10]
The resulting glass substrates coated with the monomethine cyanine dyes were measured for transmittance (T0) at the wavelengths of their absorption maxima, and then fixed to a position 7 cm apart from a 500 W xenon lamp and exposed with the light for 25 min while cold air was blowing to the substrates. Immediately after that, the resulting substrates were remeasured for transmittance (T) at the wavelengths of the absorption maxima of the monomethine cyanine dyes, and the transmittances of T and T0 for each monomethine cyanine dye were substituted for the Equation 1 to calculate the residual percentage (%) of each monomethine cyanine dye. In parallel, control systems with no light-resistant improver for each monomethine cyanine dye were provided and treated similarly as above. [formula]
As shown in the results in Table 2, in the systems with no light-resistant improver, up to 74% of the monomethine cyanine dye had changed with only a 25-min exposure of light to become incapable of exerting its inherent optical properties. However, in the systems with the formazan metal complex represented by Chemical Formula 49, all of the monomethine cyanine dyes still remained intact up to a level of over 93% without changing even after the exposure of light.

[2] = Visible absorption spectra of monomethine cyanine dyes in methanol solution and as thin layer on glass substrates; format: physicochemical; conditions: for Wavelength of absorption maximum, Solution: dissolved in methanol; for Wavelength of absorption maximum, Thin layer: thin layer formed on glass substrate
Description: The monomethine cyanine dyes in Table 1 were measured for their visible absorption spectra when dissolved in methanol and formed on glass substrates, respectively. The results are tabulated in Table 1, and the visible absorption spectrum of the monomethine cyanine dye represented by Chemical Formula 17 when in a liquid form and in a thin-layer form are shown in FIG. 1.
As evident from the results in Table 1 and FIG. 1, the monomethine cyanine dyes tested had absorption maxima in relatively short wavelength visible regions, particularly, at wavelengths of 450 nm or less both in the forms of solution and thin layer. Most of these monomethine cyanine dyes had absorption maxima at wavelengths of 350-400 nm when in solution and thin layer forms, and the ends of their absorption maxima in their longer wavelength regions extended up to about 450 nm when in a thin layer form. The fact evidences that the light absorbents, comprising the monomethine cyanine dyes of the present invention, have sensitivity to a relatively short-wavelength visible light, and most of the light absorbents substantially absorb laser beams with wavelengths of 450 nm or less in their longer wavelength regions with their absorption maxima.

SMILES | Residual percentage of monomethine cyanine dye, With no light-resistant improver [1] | Residual percentage of monomethine cyanine dye, With light-resistant improver [1] | Wavelength of absorption maximum, Solution [2] | Wavelength of absorption maximum, Thin layer [2]
CC[n+]1c(C=C2Oc3ccc(-c4ccccc4)cc3N2C)oc2ccccc21.[I-] [Chemical Formula 6] | 98.7% | 100.0% | 380 nm | 371 nm
CC[n+]1c(C)csc1C=C1OC=C(C)N1C.[I-] [Chemical Formula 17] | 80.6% | 100.0% | 379 nm | 375 nm
CN1C(=CC2=[N+](C)c3ccccc3C2(C)C)Oc2ccccc21.[I-] [Chemical Formula 36] | 26.0% | 93.2% | 396 nm | 440 nm
